According to PubChem BioAssay AID1845202 (Molecular Pharmacology Branch, DTP, NCI, 2023):

Tested on: DMS 114 tumor spheroids, viability % test/control
Assay: Anticancer human tumor DMS 114 cell line growth inhibition;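 further: spheroids exposed to compounds for 7 days before read-out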;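 on viability, T/C: luminescence used as a proxy for viable cells; 100% = DMSO vehicle control viability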
Conditions: spheroids with HUVEC and MSC; for IC50: curve of first compound; for viability, T/C: stronger effect = lower value
Outline: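 Complex spheroids of malignant cells with endothelial cells and mesenchymal stem cells; agents alone or combined, from near clinical Cmax (or 10 microM if unknown) down in half-log steps, 0.25% DMSO final.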

[1] = second compound 0.003 µM, first compound 0.0316 µM
[2] = second compound 0.003 µM, first compound 0.1 µM
[3] = second compound 0.003 µM, first compound 0.316 µM
[4] = second compound 0.003 µM, first compound 1 µM
[5] = second compound 0.003 µM, first compound 3.16 µM
[6] = second compound 0.003 µM, first compound 10 µM
[7] = second compound 0.00949 µM, first compound 0.0316 µM
[8] = second compound 0.00949 µM, first compound 0.1 µM
[9] = second compound 0.00949 µM, first compound 0.316 µM
[10] = second compound 0.00949 µM, first compound 1 µM
[11] = second compound 0.00949 µM, first compound 3.16 µM
[12] = second compound 0.00949 µM, first compound 10 µM
[13] = second compound 0.03 µM, first compound 0.0316 µM
[14] = second compound 0.03 µM, first compound 0.1 µM
[15] = second compound 0.03 µM, first compound 0.316 µM
[16] = second compound 0.03 µM, first compound 1 µM
[17] = second compound 0.03 µM, first compound 3.16 µM
[18] = second compound 0.03 µM, first compound 10 µM
[19] = second compound 0.0949 µM, first compound 0.0316 µM
[20] = second compound 0.0949 µM, first compound 0.1 µM
[21] = second compound 0.0949 µM, first compound 0.316 µM
[22] = second compound 0.0949 µM, first compound 1 µM
[23] = second compound 0.0949 µM, first compound 3.16 µM
[24] = second compound 0.0949 µM, first compound 10 µM
[25] = second compound 0.3 µM, first compound 0.0316 µM
[26] = second compound 0.3 µM, first compound 0.1 µM
[27] = second compound 0.3 µM, first compound 0.316 µM
[28] = second compound 0.3 µM, first compound 1 µM
[29] = second compound 0.3 µM, first compound 3.16 µM
[30] = second compound 0.3 µM, first compound 10 µM

Structure (SMILES) | IC50 (second compound 0.003 µM) [nM] | IC50 (second compound 0.00949 µM) [nM] | IC50 (second compound 0.03 µM) [nM] | IC50 (second compound 0.0949 µM) [nM] | IC50 (second compound 0.3 µM) [nM] | viability, T/C [1] [%] | viability, T/C [2] [%] | viability, T/C [3] [%] | viability, T/C [4] [%] | viability, T/C [5] [%] | viability, T/C [6] [%] | viability, T/C [7] [%] | viability, T/C [8] [%] | viability, T/C [9] [%] | viability, T/C [10] [%] | viability, T/C [11] [%] | viability, T/C [12] [%] | viability, T/C [13] [%] | viability, T/C [14] [%] | viability, T/C [15] [%] | further results
CC1COCCN1c1cc(-c2ccnn2C)c2ccnc(-c3ccn[nH]3)c2n1 (stereo not given) + CC[C@@]1(O)C(=O)OCc2c1cc1n(c2=O)Cc2cc3c(CN(C)C)c(O)ccc3nc2-1 | < 31.6 | < 31.6 | < 31.6 | < 31.6 | < 31.6 | 24.7 | 20.3 | 15.8 | 11.9 | 8.38 | 8.31 | 16.8 | 16.3 | 15.2 | 10.5 | 7.71 | 8.35 | 13.2 | 13 | 11.1 | viability, T/C [16]: 8.42%; viability, T/C [17]: 7.3%; viability, T/C [18]: 7.49%; viability, T/C [19]: 8.52%; viability, T/C [20]: 8.81%; viability, T/C [21]: 8.07%; viability, T/C [22]: 7.09%; viability, T/C [23]: 6.17%; viability, T/C [24]: 7.21%; viability, T/C [25]: 6.92%; viability, T/C [26]: 7.23%; viability, T/C [27]: 6.75%; viability, T/C [28]: 6.68%; viability, T/C [29]: 6.95%; viability, T/C [30]: 7.43%
COc1cc(C)[nH]c(=O)c1CN1CCc2c(Cl)cc(C(OC)C3COC3)c(Cl)c2C1=O (stereo not given) + CC[C@@]1(O)C(=O)OCc2c1cc1n(c2=O)Cc2cc3c(CN(C)C)c(O)ccc3nc2-1 | > 10000 | 1920 | < 31.6 | < 31.6 | < 31.6 | 103 | 88.5 | 83.4 | 77 | 66 | 61.2 | 88.3 | 74.2 | 64.1 | 57.5 | 49.3 | 32.1 | 39.2 | 34 | 32.1 | viability, T/C [16]: 30.6%; viability, T/C [17]: 24.4%; viability, T/C [18]: 18.5%; viability, T/C [19]: 16.8%; viability, T/C [20]: 16.3%; viability, T/C [21]: 18.4%; viability, T/C [22]: 17.1%; viability, T/C [23]: 15.2%; viability, T/C [24]: 12%; viability, T/C [25]: 10.3%; viability, T/C [26]: 11.2%; viability, T/C [27]: 10.6%; viability, T/C [28]: 11.4%; viability, T/C [29]: 11.1%; viability, T/C [30]: 10.7%
[2H]c1nc(C)nc([2H])c1-c1cc(NC[C@@H](C)c2cccc3c(C(=O)NC)ccnc23)ncn1 + CC[C@@]1(O)C(=O)OCc2c1cc1n(c2=O)Cc2cc3c(CN(C)C)c(O)ccc3nc2-1 | > 10000 | > 10000 | < 31.6 | < 31.6 | < 31.6 | 114 | 113 | 112 | 121 | 105 | 88.5 | 93 | 96.2 | 92.4 | 79 | 68.3 | 58.9 | 35.3 | 35 | 32.8 | viability, T/C [16]: 27.7%; viability, T/C [17]: 24%; viability, T/C [18]: 18.9%; viability, T/C [19]: 17%; viability, T/C [20]: 16.7%; viability, T/C [21]: 17.1%; viability, T/C [22]: 16.9%; viability, T/C [23]: 13.7%; viability, T/C [24]: 13.7%; viability, T/C [25]: 11%; viability, T/C [26]: 11%; viability, T/C [27]: 11.4%; viability, T/C [28]: 9.27%; viability, T/C [29]: 12.8%; viability, T/C [30]: 12.3%
